# In US7759337B2, “Phthalazine compounds and methods of use” (Amgen Inc., priority 2005, dated 2010):
# pIC50: −log10 of the molar value.
# Tested on: production of TNF by monocytes activated with bacterial lipopolysaccharide (LPS)
# Experiment: Lipopolysaccharide-activated monocyte TNF production assay
# Format: cell-based
# Conditions: Homo sapiens; whole blood monocyte assay (LPS induced TNF release)
# In short: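 Adherent human PBMC-derived monocytes preincubated 60 min with nine two-fold compound dilutions, then stimulated with E. coli K532 LPS (30 ng/mL in the added medium) for 4 h at 37 °C. Supernatant TNF measured by sandwich ELISA; IC50 is the compound concentration halving TNF production, from second-order polynomial fits.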
row,SMILES,pIC50
1,"Cc1ccc(C(=O)NC2CC2)cc1-c1ccc2c(-c3ccccc3C(F)(F)F)nncc2c1 [Example 254, N-cyclopropyl-4-methyl-3-{1-[2-(trifluoromethyl)phenyl]phthalazin-6-yl}benzamide]",≥ 5.30
2,"Cc1ccc(C(=O)NC(C)C)cc1-c1ccc2c(NC(C)C)nncc2c1 [Example 404, N-isopropyl-3-[1-(isopropylamino)phthalazin-6-yl]-4-methylbenzamide]",≥ 5.30
3,"Cc1ccc(C(=O)NC2CC2)cc1-c1ccc2c(-c3ccc(OC(F)(F)F)cc3)nncc2c1 [Example 245, N-cyclopropyl-4-methyl-3-{1-[4-(trifluoromethoxy)phenyl]phthalazin-6-yl}benzamide]",≥ 5.30
4,"Cc1ccccc1-c1ccc2c(-c3ccccc3C)nncc2c1 [Example 386, 1,6-bis(2-methylphenyl)phthalazine]",≥ 5.30
5,"CNc1noc2c(-c3ccc4c(OC(C)C)nncc4c3)c(C)ccc12 [Example 331, N,6-dimethyl-7-(1-((1-methylethyl)oxy)-6-phthalazinyl)-1,2-benzisoxazol-3-amine]",≥ 5.30
6,"Cc1ccc(C(N)=O)cc1-c1ccc2c(N3C[C@H](C)N(CC(F)(F)F)C[C@H]3C)nncc2c1 [Example 368, 3-{1-[(2R,5S)-2,5-dimethyl-4-(2,2,2-trifluoroethyl)piperazin-1-yl]phthalazin-6-yl}-4-methylbenzamide]",≥ 5.30
7,"Cc1ccc(C(=O)NC2CC2)cc1-c1ccc2c(N3C[C@H](C)N(CC(F)(F)F)C[C@H]3C)nncc2c1 [Example 376, N-cyclopropyl-3-{1-[(2R,5S)-2,5-dimethyl-4-(2,2,2-trifluoroethyl)piperazin-1-yl]phthalazin-6-yl}-4-methylbenzamide]",≥ 5.30
8,"Cc1ccc(-c2nncc3cc(-c4cc(C(=O)NC5CC5)ccc4C)ccc23)c(Cl)c1 [Example 235, 3-[1-(2-chloro-4-methylphenyl)phthalazin-6-yl]-N-cyclopropyl-4-methylbenzamide]",≥ 5.30
9,"Cc1cc(F)c(C(=O)NC2CC2)cc1-c1ccc2c(N3C[C@@H](C)OC[C@H]3C)nncc2c1 [Example 135, N-cyclopropyl-5-{1-[(2R,5R)-2,5-dimethylmorpholin-4-yl]phthalazin-6-yl}-2-fluoro-4-methylbenzamide]",≥ 5.30
10,"COc1ncccc1-c1nncc2cc(-c3cc(C(=O)NC4CC4)ccc3C)ccc12 [Example 230, N-cyclopropyl-3-[1-(2-methoxypyridin-3-yl)phthalazin-6-yl]-4-methylbenzamide]",≥ 5.30
11,"Cc1ccc(C(=O)NC2CC2)cc1-c1ccc2c(N3CCNC(=O)[C@H]3C)nncc2c1 [Example 100, N-cyclopropyl-4-methyl-3-{1-[(2R)-2-methyl-3-oxopiperazin-1-yl]phthalazin-6-yl}benzamide]",≥ 5.30
12,"Cc1ccc(C(=O)NC2CC2)cc1-c1ccc2c(N3CCN[C@@H](C)C3)nncc2c1 [Example 149, N-cyclopropyl-4-methyl-3-{1-[(3S)-3-methylpiperazin-1-yl]phthalazin-6-yl}benzamide]",≥ 5.30
13,"CC(=O)Nc1noc2c(-c3ccc4c(N5CCOC[C@@H]5C)nncc4c3)c(C)ccc12 [Example 403, N-(6-methyl-7-{1-[(3S)-3-methylmorpholin-4-yl]phthalazin-6-yl}-1,2-benzisoxazol-3-yl)acetamide]",≥ 5.30
14,"Cc1ccc(-c2nncc3cc(-c4cc(C(=O)NC5CC5)ccc4C)ccc23)c(C)c1 [Example 18, N-cyclopropyl-3-[1-(2,4-dimethylphenyl)phthalazin-6-yl]-4-methylbenzamide]",≥ 5.30
15,"Cc1ccccc1Oc1nncc2cc(-c3c(C)ccc4c(NC5CC5)noc34)ccc12 [Example 318, N-cyclopropyl-6-methyl-7-[1-(2-methylphenoxy)phthalazin-6-yl]-1,2-benzisoxazol-3-amine]",≥ 5.30
16,"Cc1ccc(C(N)=O)cc1-c1ccc2c(-c3ccccc3Cl)nncc2c1 [Example 156, 3-[1-(2-chlorophenyl)phthalazin-6-yl]-4-methylbenzamide]",≥ 5.30
